Measurements published in patent US5023265A, “Substituted 1-H-pyrrolopyridine-3-carboxamides” (Schering Corporation, priority 1990, dated 1991).
Like-named read-outs stand apart in the source and are kept apart here.

Experiments:
[1] = tested on: Reversed Passive Arthus Reaction (RPAR) in the rat paw; assay: RPAR-Paw Assay (Reversed Passive Arthus Reaction, rat paw); assay type: in vivo, male Wistar/Lewis inbred albino rats; settings: oral, paw volume 2 hours postchallenge, read-out: RPAR-Paw % Inhib.
Description: In order to determine the antiinflammatory activity by the reverse passive Arthus response, male Wistar/Lewis inbred albino rats weighing 180-200 g were used. The rats were housed three animals per cage and fasted 24 hours prior to and during the study. Water was allowed ad libitum.
All reagents and drugs were prepared prior to the study. Crystallized and lyophilized bovine serum albumin (BSA) was solubilized in cold, sterile, pyrogen-free saline (PFS), 10 mg/mL. Lyophylized antibovine serum albumin (anti-BSA), the IgG fraction, was suspended or solubilized in an aqueous solution of methylcellulose (MC) with a homogenizer prior to administration.
One hour prior to sensitization with BSA, groups of animals (minimum six per group) were given drug in MC by gavage according to body weight (1.0 mL/100 g). Controls were given MC alone, and a drug standard, indomethacin, was usually included in each assay. Drugs were prepared so as to provide a dose for a 200 g animal, which was equivalent to the milligram per kilogram dose for the experiment. Each rat received an oral dose in a volume of approximately 2.0 mL. One hour after dosing, the animals were lightly anesthetized with ether and "sensitized" by injection into the penile vein with 0.2 mL of PFS containing 1 mg of BSA. One hour later, the animals were "challenged" in the right hind paw with subplantar injections of 0.2 mL PFS pyrogen-free salin containing 0.1 mg of anti-BSA bovine serum albumin. Immediately after the subplantar injections, the right hand paw was immersed (to the lateral maleolus) into the mercury well of a plethysmograph. The volume of mercury displaced was converted to weight and recorded. This value was considered to be the control reading for the animal. Paw volumes were also recorded with a plethysmograph during the development of the inflammation at 2 hours postchallenge.
Results were expressed by the change in paw volume from the control reading for each animal to that recorded 2 hours postchallenge. All drug-treated groups were compared to the MC control for significant differences by using analysis of variance (Duncan and Dunnetts). Differences from control in drug-treated groups were expressed as percent inhibition.
In order to determine the dose required to inhibit the inflammatory response by 50% (ED50), a minimum of three and a maximum of five points were included in the assay. The ED50 and the relative potency to a drug standard, indomethacin, were determined by linear regression analysis. (J. Med. Chem., 1984, Vol. 27, No. 1, 27). Results for representative compounds of the invention are shown in Columns 3 and 4 of Table 1 below.

[2] = tested on: Reversed Passive Arthus Reaction (RPAR) in the rat pleural cavity; assay: RPAR-Pleural Cavity Assay; assay type: in vivo, male rats; settings: for inhibition in vivo at 25 mg/kg / inhibition in vivo at 50 mg/kg: Rattus norvegicus, 4 hours
Description: RPAR-Pleural Cavity Assay
Groups of 4 male rats were injected in the penile vein with antigen (1 mg BSA in 0.2 mL of saline per rat) and 0.5 hour later injected in the pleural cavity with antibody (1.0 mg antibody protein in the IgG fraction of rabbit anti-BSA in 0.2 mL). […] After 4 hours the animals were killed with CO2, and the pleural cavities were opened and the exudate drained into a graduated conical glass centrifuge tube containing indomethacin (1.8 μg) and nordihydroguaiaretic acid (NDGA) (15 μg) to block ex vivo metabolite synthesis. The volume of the exudate was measured. The cavity was then washed out with saline-EDTA to achieve a final volume of 5.0 mL. The number of cells were determined in a Coulter Counter. The cells were spun-down (1000×g) and the exudate supernatant was added to 4 volumes of 95% ethanol and samples were kept on ice for 30 minutes. After removal of the protein precipitate (2,500×g) the ethanol extract of the exudate was dried under N2 and then stored at -20° C. For radioimmunoassay (RIA) analysis the samples were redissolved in water to a volume of 1 mL per rat. Utilizing internally spiked samples, recovery of TXB2 (tritiated thromboxane B2) and LTE4 (tritiated leukotriene-E4) from exudates was determined to be 84±2% (SEM) and 89±2% (N=4), respectively. Exudate samples were directly assayed in duplicate with the commercial ^3 H-TXB2 RIA kit from New England Nuclear and the ^3 H-LTC4 /D4 /E4 kit from Amersham. The assay was validated using reversed-phase HPLC analysis of LTs in the standard procedure described by M. W. Musch, R. W. Bryant, C. Coscollaela, R. F. Myers and M. I. Siegel, Prostaglandins, Vol. 29, pp 405-430 (1985). Samples of ethanol exudate extract were "spiked" with ^3 H-LTs to follow HPLC purification and recovery.

cyclooxygenase = assay: Rat CO/LO Inhibition: cyclooxygenase metabolite HHT in rat pleural neutrophils; assay type: cell-based, male Wistar-Lewis rats; settings: 5 M × 10^-5, rat neutrophils
Description: Male Wistar-Lewis rats were injected iv with 5 mg of BSA in 0.2 mL of pyrogen-free saline followed by an intrapleural injection of 500 μg of the IgG fraction of rabbit anti-BSA in 0.2 mL of pyrogen-free saline, all under light anesthesia. After 4 hours the pleural cavity exudate, consisting of 85-95% neutrophils, was removed. Neutrophils were isolated from the pleural exudates by centrifugation at 4° C. for 10 minutes at 200 g. The cell pellet was briefly resuspended in 17 mM Tris-HCl buffer, pH 7.2, containing 0.75% NH4 Cl in order to lyse red cells, followed by centrifugation at 4° C. for 5 minutes at 200 g. The pelleted neutrophils were rewashed in 50 mM Tris-HCl, pH 7.4, containing 100 mM NaCl and 1 mM CaCl2, for a final cell count of approximately 5×10^6 intact neutrophils/0.1 mL of suspension.
Arachidonic acid metabolism via cyclooxygenase and 5-lipoxygenase was determined by preincubating the above cell suspension with the test compound for 4 minutes at room temperature and then adding 0.1 mL of the preincubated cells to assay tubes. The final assay mixture (0.1 mL) contained 40 μM [1-^14 C]arachidonic acid, 10 μM calcium A23187 ionophore and 0.1% BRIJ®56 detergent. After 1 minutes at 37° C., assays were terminated by the addition of 2.4 mL of a CHCl3 /CH3 OH (1:1 v/v) mixture and 0.9 mL of 0.1% HCOOH. The suspension was vortexed, immediately cooled on ice, and centrifuged and the organic layer withdrawn. The extract was evaporated and resuspended in 0.1 mL of CHCl3 /CH3 OH (1:2, v/v) for spotting on silica gel TLC plates (without gypsum). Development was with petroleum ether/diethylether/acetic acid (40:60:1, v/v/v). Products were located by autoradiography and the appropriate regions scraped and counted in a liquid scintillation counter. The 5-lipoxygenase metabolite 5-hydroxy-6,8,11,14-eicosatetraenoic acid (5-HETE) and the cyclooxygenase metabolite 12-hydroxy-[…] (HHT) were identified by cochromatography with authentic standards on TLC plates. Results are reported as percent inhibition of cyclooxygenase and lipoxygenase metabolite formation. (Myers, R. F.; Siegel, M. I., Biochem. Biophys. Res. Commun., 1983, 112, 586.) Results with representative compounds of the invention are shown in Columns 10, 11 and 12 of Table 1 below.

[3] = tested on: Adjuvant-Induced Arthritis in Rats; assay: Adjuvant-Induced Arthritis in Rats (AAR); assay type: in vivo; settings: Rattus norvegicus, 504 h; dosed 1 hour prior to adjuvant, then 21 consecutive days
[4] = read-out: RPAR-Pleural Cavity % Inhibition Cells
[5] = exudate volume, read-out: RPAR-Pleural Cavity % Inhibition Fluid
[6] = 50 mg/kg, read-out: RPAR-Pleural Cavity % Inhibition Cells
[7] = 50 mg/kg, exudate volume, read-out: RPAR-Pleural Cavity % Inhibition Fluid

SMILES | inhibition in vivo at 25 mg/kg [1] | RPAR-Pleural Cavity % Inhibition LTE4 ([2]; 50 mg/kg, LTE4 in exudate by RIA) | RPAR-Pleural Cavity % Inhibition TXB2 ([2]; 50 mg/kg, TXB2 in exudate by RIA) | inhibition in vivo at 25 mg/kg [2, 4] | inhibition in vivo at 25 mg/kg [2, 5] | inhibition in vivo at 50 mg/kg [2, 6] | inhibition in vivo at 50 mg/kg [2, 7] | Cyclooxygenese/lipoxygenese % Inhib. HHT (cyclooxygenase) | ED50 [3] | inhibition in vivo at 50 mg/kg [1]
O=C(Nc1ccccc1)c1c(O)n(-c2ccccc2)c2ncccc12 | 60% | 59% | 100% | 56% | 49% | 61% | 27% | 93% | 9 mg/kg | 
O=C(Nc1ccccc1)c1c(O)n(-c2cccc(C(F)(F)F)c2)c2ncccc12 |  |  |  | 0% | 0% |  |  | 56% |  | 60%
CC(C)(C)n1c(O)c(C(=O)Nc2ccccc2)c2cccnc21 | 36% |  |  | 41% | 26% |  |  |  |  | 
O=C(Nc1ccccn1)c1c(O)n(-c2ccccc2)c2ncccc12 |  |  |  |  |  |  |  | 78% |  | 26%
O=C(Nc1ccccc1)c1c(O)n(-c2ccc(Cl)cc2)c2ncccc12 |  |  |  | 51% | 18% |  |  | 96% |  | 56%
O=C(Nc1cccc(C(F)(F)F)c1)c1c(O)n(-c2ccccc2)c2ncccc12 | 41% |  |  | 22% | 0% |  |  | 60% |  | 
O=C(Nc1ccc(F)cc1F)c1c(O)n(-c2ccccc2)c2ncccc12 |  |  |  |  |  |  |  | 96% |  | 33%
O=C(Nc1ccccc1)c1c(O)n(Cc2ccccc2)c2ncccc12 | 42% |  |  | 36% | 76% |  |  | 34% | 33 mg/kg | 
Cc1cc(NC(=O)c2c(O)n(-c3ccccc3)c3ncccc23)no1 | 10% |  |  | 0% | 0% |  |  | 45% |  | 
O=C(Nc1ccccc1)c1c(O)[nH]c2ncccc12 | 22% |  |  |  |  |  |  | 0% |  | 
COc1ccc(NC(=O)c2c(O)n(-c3ccccc3)c3ncccc23)cc1 | 42% |  |  | 28% | 27% |  |  |  |  | 
CCCCNC(=O)c1c(O)n(-c2ccccc2)c2ncccc12 | 29% |  |  | 19% | 0% |  |  | 44% |  | 
O=C(NCc1ccccc1)c1c(O)n(-c2ccccc2)c2ncccc12 | 0% |  |  | 0% | 0% |  |  | 34% |  | 
O=C(Nc1ccccc1)c1c(O)n(Cc2ccc(F)cc2)c2ncccc12 | 32% |  |  | 30% | 46% |  |  | 57% |  | 
CC(C)n1c(O)c(C(=O)Nc2ccccc2)c2cccnc21 |  |  |  | 34% | 44% | 65% | 57% |  |  | 
O=C(O)c1cc(NC(=O)c2c(O)n(-c3ccccc3)c3ncccc23)ccc1O | 4% |  |  | 0% | 0% |  |  |  |  | 
CC(C)(C)NC(=O)c1c(O)n(-c2ccccc2)c2ncccc12 | 49% |  |  | 66% | 23% |  |  |  |  | 
CC(C)c1ccc(-n2c(O)c(C(=O)Nc3ccccc3)c3cccnc32)cc1 | 34% |  |  | 9% | 8% |  |  |  |  | 
Cn1c(O)c(C(=O)Nc2ccccc2)c2cccnc21 |  |  |  | 45% | 5% |  |  | 0% |  | 
